According to ChEMBL document CHEMBL4765237, “Structural optimization and structure-activity relationship studies of N-phenyl-7,8-dihydro-6H-pyrimido[5,4-b][1,4]oxazin-4-amine derivatives as a new class of inhibitors of RET and its drug resistance mutants” (Eur J Med Chem, 2018):
Activity calls are given as the source filed them. The rule behind the calls is not given here.

Experiments:
[1] = organism: Mus musculus; details: NOD-SCID, dose 30.0 mg/kg, time 18.0 day
[2] = target: CDK4/Cyclin D3 (Homo sapiens, UniProt P11802); assay: Inhibition of recombinant full length human CDK4/CyclinD3 using Rb fragment as substrate incubated for 40 mins in presence of [gamma-33ATP] by scintillation counting based radiometry assay; assay type: protein-complex assay
[3] = target: Angiopoietin-1 receptor (Homo sapiens, UniProt Q02763); assay: Inhibition of recombinant human TIE2 (771 to end residues) using poly(Glu, Tyr) 4:1 as substrate incubated for 40 mins in presence of [gamma33P]ATP by scintillation counting based radiometry assay
[4] = target: Mitogen-activated protein kinase 12 (Homo sapiens, UniProt P53778); assay: Inhibition of recombinant human full length SAPK3 using myelin basic protein as substrate incubated for 40 mins in presence of [gamma33P]ATP by scintillation counting based radiometry assay
[5] = organism: Mus musculus; details: NOD-SCID, dose 30.0 mg/kg, time 18.0 day; remark: listed apart in the source
[6] = system: Ramos; assay: Growth inhibition of human Ramos cells incubated for 3 days by MTT assay; assay type: functional; details: 72 h, time 3 day
[7] = Growth inhibition of […] NIH3T3 cells harboring RET C634Y mutant incubated for 3 days by MTT assay; assay type: functional; details: NIH3T3, 72 h; time 3 day
[8] = target: Tyrosine-protein kinase Blk (Homo sapiens, UniProt P51451); assay: Inhibition of recombinant full length human BLK using poly(Glu, Tyr) 4:1 as substrate incubated for 40 mins in presence of [gamma-33ATP] by scintillation counting based radiometry assay
[9] = Growth inhibition of […] NIH3T3 cells incubated for 3 days by MTT assay; assay type: functional; details: NIH3T3, 72 h; time 3 day
[10] = target: Ephrin type-B receptor 1 (Homo sapiens, UniProt P54762); assay: Inhibition of recombinant human EphB1 (564 to end residues) using KVEKIGEGTYGVVYK as substrate incubated for 40 mins in presence of [gamma-33ATP] by scintillation counting based radiometry assay
[11] = system: BaF3; assay: Growth inhibition of mouse BaF3 cells over expressing wild type RET incubated for 3 days by MTT assay; assay type: functional; details: BaF3, 72 h, time 3 day
[12] = target: Tyrosine-protein kinase Mer (Homo sapiens, UniProt Q12866); assay: Inhibition of recombinant human MER (557 to 882 residues) using KKLNRTLSFAEPG as substrate incubated for 40 mins in presence of [gamma-33ATP by scintillation counting based radiometry assay
[13] = organism: Mus musculus; details: NOD-SCID, dose 30.0 mg/kg, time 18.0 day; remark: listed apart in the source
[14] = target: Tyrosine-protein kinase HCK (Homo sapiens, UniProt P08631); assay: Inhibition of human HCK (230 to 497 residues) using […] as substrate after 40 mins by [gamma-33ATP] radiometric assay
[15] = Inhibition of colony formation in […] NIH3T3 cells at > 1 uM incubated for 10 days by crystal violet assay relative to control; assay type: functional; details: dose microM >1; time 10 day
[16] = target: Platelet-derived growth factor receptor alpha (Homo sapiens, UniProt P16234); assay: Inhibition of human PDGFRalpha (550 to end residues) using poly(Glu, Tyr) 4:1 as substrate measured after 40 mins in presence of [gamma33P]ATP by scintillation counting based radiometry assay
[17] = target: Mitogen-activated protein kinase kinase kinase kinase 5 (Homo sapiens, UniProt Q9Y4K4); assay: Inhibition of recombinant human MAP4K5 using myelin basic protein as substrate incubated for 40 mins in presence of [gamma-33ATP by scintillation counting based radiometry assay
[18] = target: Platelet-derived growth factor receptor beta (Homo sapiens, UniProt P09619); assay: Inhibition of human PDGFRbeta (557 to end residues) using poly(Glu, Tyr) 4:1 as substrate measured after 40 mins in presence of [gamma33P]ATP by scintillation counting based radiometry assay
[19] = target: Serine/threonine-protein kinase WNK3 (Homo sapiens, UniProt Q9BYP7); assay: Inhibition of recombinant human WNK3 (1 to 434 residues) using myelin basic protein as substrate incubated for 40 mins in presence of [gamma33P]ATP by scintillation counting based radiometry assay
[20] = target: NT-3 growth factor receptor (Homo sapiens, UniProt Q16288); assay: Inhibition of recombinant human TRKC (510 to end residues) using GEEPLYWSFPAKKK as substrate incubated for 40 mins in presence of [gamma33P]ATP by scintillation counting based radiometry assay
[21] = AUC (0 to t) in Sprague-Dawley rat at 10 mg/kg, po measured upto 24 hrs by LC-MS/MS analysis; assay type: ADME, organism-based; design: route oral, dose 10 mg/kg, time <=24; details: in vivo
[22] = target: Mitogen-activated protein kinase 11 (Homo sapiens, UniProt Q15759); assay: Inhibition of recombinant human full length SAPK2b using myelin basic protein as substrate incubated for 40 mins in presence of [gamma33P]ATP by scintillation counting based radiometry assay
[23] = system: DU-145; assay: Growth inhibition of human DU-145 cells incubated for 3 days by MTT assay; assay type: functional; details: DU-145, 72 h, time 3 day
[24] = target: Interleukin-1 receptor-associated kinase 1 (Homo sapiens, UniProt P51617); assay: Inhibition of human IRAK1 (194 to end residues) using myelin basic protein as substrate after 40 mins by [gamma-33ATP] radiometric assay
[25] = target: Discoidin domain-containing receptor 2 (Homo sapiens, UniProt Q16832); assay: Inhibition of recombinant human DDR2 (467 to end residues) using KKSRGDYMTMQIG as substrate incubated for 40 mins in presence of [gamma-33ATP] by scintillation counting based radiometry assay
[26] = target: Tyrosine-protein kinase ITK/TSK (Homo sapiens, UniProt Q08881); assay: Inhibition of human ITK (352 to 617 residues) using myelin basic protein as substrate after 40 mins by [gamma-33ATP] radiometric assay
[27] = target: Homeodomain-interacting protein kinase 4 (Homo sapiens, UniProt Q8NE63); assay: Inhibition of human HIPK4 using RRRFRPASPLRGPPK as substrate after 40 mins by [gamma-33ATP] radiometric assay
[28] = target: RAF proto-oncogene serine/threonine-protein kinase (Homo sapiens, UniProt P04049); assay: Inhibition of recombinant human C-Raf (306 to end residues) poly(Glu, Tyr) 4:1 as substrate incubated 40 mins in presence of [gamma-33ATP] by scintillation counting based radiometry assay
[29] = target: Receptor-type tyrosine-protein kinase FLT3 (Homo sapiens, UniProt P36888); assay: Inhibition of recombinant human FLT3 (564 to end residues) using EAIYAAPFAKKK as substrate incubated for 40 mins in presence of [gamma-33ATP] by scintillation counting based radiometry assay
[30] = system: BaF3; assay: Growth inhibition of mouse BaF3 cells harboring RET M918T mutant incubated for 3 days by MTT assay; assay type: functional; details: BaF3, 72 h, time 3 day
[31] = target: Serine/threonine-protein kinase B-raf (Homo sapiens, UniProt P15056); assay: Inhibition of recombinant full length human B-Raf (416 to end residues) using myelin basic protein substrate incubated for 40 mins in presence of [gamma-33ATP] by scintillation counting based radiometry assay
[32] = Clearance in Sprague-Dawley rat at 10 mg/kg, po measured upto 24 hrs by LC-MS/MS analysis; assay type: ADME, organism-based; details: in vivo

Homeodomain-interacting protein kinase 4, sequence (Q8NE63 whole entry): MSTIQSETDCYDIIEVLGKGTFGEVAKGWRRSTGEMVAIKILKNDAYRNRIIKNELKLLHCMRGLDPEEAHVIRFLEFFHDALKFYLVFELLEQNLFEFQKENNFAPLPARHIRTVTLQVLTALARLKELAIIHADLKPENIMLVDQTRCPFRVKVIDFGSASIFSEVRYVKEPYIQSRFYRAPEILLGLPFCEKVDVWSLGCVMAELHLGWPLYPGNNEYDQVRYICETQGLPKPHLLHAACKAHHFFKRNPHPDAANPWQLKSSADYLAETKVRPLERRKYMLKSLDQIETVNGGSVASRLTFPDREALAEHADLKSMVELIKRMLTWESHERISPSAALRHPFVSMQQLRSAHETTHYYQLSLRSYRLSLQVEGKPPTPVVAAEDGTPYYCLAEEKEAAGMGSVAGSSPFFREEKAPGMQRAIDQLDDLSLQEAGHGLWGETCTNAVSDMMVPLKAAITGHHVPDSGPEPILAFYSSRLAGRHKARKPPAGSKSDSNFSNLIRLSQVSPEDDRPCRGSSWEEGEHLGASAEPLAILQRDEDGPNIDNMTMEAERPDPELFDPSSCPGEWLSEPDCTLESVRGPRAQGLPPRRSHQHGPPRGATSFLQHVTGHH
Angiopoietin-1 receptor, sequence (Q02763 whole entry): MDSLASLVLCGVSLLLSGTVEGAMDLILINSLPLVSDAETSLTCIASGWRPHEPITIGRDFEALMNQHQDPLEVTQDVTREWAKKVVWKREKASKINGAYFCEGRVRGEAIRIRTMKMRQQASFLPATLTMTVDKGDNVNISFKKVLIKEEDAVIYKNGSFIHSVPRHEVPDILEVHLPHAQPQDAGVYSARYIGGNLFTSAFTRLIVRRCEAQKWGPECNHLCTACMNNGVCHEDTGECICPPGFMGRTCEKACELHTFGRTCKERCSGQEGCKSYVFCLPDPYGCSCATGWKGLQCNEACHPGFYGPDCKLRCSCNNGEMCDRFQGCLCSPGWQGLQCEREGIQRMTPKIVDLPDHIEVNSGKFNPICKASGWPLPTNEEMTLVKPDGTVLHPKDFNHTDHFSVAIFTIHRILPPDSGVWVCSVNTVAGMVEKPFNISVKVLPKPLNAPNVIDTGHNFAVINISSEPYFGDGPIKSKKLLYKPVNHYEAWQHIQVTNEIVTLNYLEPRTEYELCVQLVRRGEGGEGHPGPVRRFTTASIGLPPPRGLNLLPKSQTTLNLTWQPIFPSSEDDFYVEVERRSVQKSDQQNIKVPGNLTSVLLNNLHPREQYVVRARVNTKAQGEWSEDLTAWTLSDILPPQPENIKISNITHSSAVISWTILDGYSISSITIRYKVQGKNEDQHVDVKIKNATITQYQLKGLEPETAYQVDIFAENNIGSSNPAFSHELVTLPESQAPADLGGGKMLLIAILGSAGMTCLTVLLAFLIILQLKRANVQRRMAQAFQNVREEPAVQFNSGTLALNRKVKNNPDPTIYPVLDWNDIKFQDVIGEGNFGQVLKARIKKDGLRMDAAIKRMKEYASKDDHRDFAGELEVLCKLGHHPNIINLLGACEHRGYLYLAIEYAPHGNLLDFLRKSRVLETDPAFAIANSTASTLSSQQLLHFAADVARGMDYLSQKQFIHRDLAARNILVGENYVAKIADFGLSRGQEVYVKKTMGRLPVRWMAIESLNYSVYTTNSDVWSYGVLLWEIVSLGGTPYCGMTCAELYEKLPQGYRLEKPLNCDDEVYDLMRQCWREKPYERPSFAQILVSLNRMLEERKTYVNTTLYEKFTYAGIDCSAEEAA
Serine/threonine-protein kinase WNK3, sequence (Q9BYP7 whole entry, the tested form may be a part): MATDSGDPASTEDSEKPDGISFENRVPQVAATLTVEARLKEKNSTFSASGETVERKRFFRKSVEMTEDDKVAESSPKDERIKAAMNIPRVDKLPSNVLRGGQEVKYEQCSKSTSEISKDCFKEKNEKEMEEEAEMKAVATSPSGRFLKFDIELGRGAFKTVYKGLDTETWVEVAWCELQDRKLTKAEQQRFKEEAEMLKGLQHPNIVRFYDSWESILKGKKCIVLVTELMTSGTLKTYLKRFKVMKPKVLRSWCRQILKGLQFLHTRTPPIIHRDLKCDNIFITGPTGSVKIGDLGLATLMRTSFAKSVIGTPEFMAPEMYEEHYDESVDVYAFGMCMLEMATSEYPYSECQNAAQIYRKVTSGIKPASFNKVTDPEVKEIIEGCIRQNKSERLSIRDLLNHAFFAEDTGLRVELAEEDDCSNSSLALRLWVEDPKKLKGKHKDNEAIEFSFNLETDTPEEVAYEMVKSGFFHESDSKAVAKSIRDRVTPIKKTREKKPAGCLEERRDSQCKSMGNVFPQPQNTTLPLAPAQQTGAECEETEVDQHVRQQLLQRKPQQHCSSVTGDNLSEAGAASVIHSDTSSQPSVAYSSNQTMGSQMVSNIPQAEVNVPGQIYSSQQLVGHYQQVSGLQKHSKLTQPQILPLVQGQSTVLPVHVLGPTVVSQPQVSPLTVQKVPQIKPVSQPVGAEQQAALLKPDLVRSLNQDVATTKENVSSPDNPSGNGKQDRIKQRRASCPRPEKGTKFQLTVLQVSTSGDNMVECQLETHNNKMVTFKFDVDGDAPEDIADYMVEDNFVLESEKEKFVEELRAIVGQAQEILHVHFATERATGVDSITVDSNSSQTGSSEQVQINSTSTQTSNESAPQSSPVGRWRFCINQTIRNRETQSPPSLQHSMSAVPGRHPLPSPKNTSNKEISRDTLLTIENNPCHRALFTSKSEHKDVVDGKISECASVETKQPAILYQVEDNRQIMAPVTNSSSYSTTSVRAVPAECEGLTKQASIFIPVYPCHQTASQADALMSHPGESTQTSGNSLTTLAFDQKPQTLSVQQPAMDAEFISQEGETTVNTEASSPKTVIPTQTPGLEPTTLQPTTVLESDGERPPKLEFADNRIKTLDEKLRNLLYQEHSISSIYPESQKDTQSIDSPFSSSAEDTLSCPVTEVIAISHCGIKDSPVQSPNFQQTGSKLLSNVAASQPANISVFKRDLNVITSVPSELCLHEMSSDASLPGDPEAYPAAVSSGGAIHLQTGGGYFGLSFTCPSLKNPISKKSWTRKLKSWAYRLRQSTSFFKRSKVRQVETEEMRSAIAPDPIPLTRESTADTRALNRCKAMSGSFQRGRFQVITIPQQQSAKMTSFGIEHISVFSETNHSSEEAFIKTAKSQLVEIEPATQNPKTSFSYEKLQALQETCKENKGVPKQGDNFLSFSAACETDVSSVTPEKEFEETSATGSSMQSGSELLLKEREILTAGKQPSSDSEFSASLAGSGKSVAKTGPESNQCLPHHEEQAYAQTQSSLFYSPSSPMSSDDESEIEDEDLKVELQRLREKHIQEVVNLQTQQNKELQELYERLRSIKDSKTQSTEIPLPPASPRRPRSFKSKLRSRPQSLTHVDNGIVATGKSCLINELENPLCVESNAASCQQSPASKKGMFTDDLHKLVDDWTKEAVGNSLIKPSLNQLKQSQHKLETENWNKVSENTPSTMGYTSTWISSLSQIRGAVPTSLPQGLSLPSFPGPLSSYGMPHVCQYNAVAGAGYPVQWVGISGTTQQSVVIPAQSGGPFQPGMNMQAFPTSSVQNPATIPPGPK
Mitogen-activated protein kinase 12, sequence (P53778 whole entry): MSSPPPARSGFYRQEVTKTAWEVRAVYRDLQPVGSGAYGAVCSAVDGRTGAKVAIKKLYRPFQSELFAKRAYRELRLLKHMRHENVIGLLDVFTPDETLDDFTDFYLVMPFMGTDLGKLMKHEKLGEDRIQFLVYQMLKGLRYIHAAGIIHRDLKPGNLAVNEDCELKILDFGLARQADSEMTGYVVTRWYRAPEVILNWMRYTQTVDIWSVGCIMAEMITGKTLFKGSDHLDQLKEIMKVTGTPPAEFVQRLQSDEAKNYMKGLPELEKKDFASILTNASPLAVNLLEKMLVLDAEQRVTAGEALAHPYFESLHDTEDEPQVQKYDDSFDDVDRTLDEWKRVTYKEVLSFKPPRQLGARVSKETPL
CDK4/Cyclin D3, sequence (P11802 whole entry, the tested form may be a part): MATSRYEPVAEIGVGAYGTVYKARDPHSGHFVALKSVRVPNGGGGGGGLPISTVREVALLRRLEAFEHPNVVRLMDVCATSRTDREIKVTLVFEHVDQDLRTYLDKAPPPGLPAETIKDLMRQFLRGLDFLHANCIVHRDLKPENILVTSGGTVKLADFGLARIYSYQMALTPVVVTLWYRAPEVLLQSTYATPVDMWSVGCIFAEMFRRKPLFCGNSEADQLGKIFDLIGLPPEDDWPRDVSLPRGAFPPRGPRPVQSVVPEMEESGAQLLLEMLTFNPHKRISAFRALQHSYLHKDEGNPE
CDK4/Cyclin D3, sequence (P30281 whole entry, further chain, the tested form may be a part): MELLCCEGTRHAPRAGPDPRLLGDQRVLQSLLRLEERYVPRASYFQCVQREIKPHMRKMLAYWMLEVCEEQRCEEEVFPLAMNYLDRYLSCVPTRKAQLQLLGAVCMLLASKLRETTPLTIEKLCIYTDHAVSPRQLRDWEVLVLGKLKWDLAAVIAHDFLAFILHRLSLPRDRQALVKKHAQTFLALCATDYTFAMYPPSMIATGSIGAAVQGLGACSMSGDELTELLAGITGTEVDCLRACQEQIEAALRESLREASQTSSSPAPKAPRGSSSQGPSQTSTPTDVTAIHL
Tyrosine-protein kinase HCK, sequence (P08631 whole entry, the tested form may be a part): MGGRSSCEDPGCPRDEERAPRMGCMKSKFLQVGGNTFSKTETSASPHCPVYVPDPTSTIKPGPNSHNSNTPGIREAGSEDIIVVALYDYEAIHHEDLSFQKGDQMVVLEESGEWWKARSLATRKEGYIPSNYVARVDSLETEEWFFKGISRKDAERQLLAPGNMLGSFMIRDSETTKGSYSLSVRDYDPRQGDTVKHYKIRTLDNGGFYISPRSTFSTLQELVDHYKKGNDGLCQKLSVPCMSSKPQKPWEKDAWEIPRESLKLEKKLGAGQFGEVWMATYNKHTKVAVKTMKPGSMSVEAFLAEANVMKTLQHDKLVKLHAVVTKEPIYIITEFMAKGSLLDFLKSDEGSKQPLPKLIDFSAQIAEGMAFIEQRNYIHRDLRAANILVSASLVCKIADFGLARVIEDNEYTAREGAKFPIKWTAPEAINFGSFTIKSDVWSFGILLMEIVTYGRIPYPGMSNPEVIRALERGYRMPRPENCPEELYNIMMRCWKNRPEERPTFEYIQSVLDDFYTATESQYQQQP

In the case of `CC(C)(C)c1cc(NC(=O)Nc2ccc(Nc3ncnc4c3OCCCN4)cc2)no1`, the inhibition [1] is reported as “Active”, the IC50 [2] is reported as 1.11 µM and the IC50 [3] is reported as 0.408 µM. For the same compound, the IC50 [4] was 0.199 µM, the inhibition [5] was “Active” and the GI50 [6] was greater than 10 µM. For the same compound, the GI50 [7] was 0.08 µM, the IC50 [8] was 1.91 µM and the GI50 [9] was greater than 10 µM. It also gave an IC50 [10] of 0.388 µM, a GI50 [11] of 0.1 µM and an IC50 [12] of 1.49 µM. For the same compound, the inhibition [13] was “Active”, the IC50 [14] was 0.087 µM and the “inhibition (INH)” value [15] was 100%. For the same compound, the IC50 [16] was 0.262 µM, the IC50 [17] was 0.711 µM and the IC50 [18] was 0.686 µM. The IC50 [19] was 0.494 µM, the IC50 [20] was 0.02 µM and the AUC(0-t) at 24 h [21] was 441 µg·h/mL. For the same compound, the IC50 [22] was 0.05 µM, the GI50 [23] was greater than 10 µM and the IC50 [24] was 0.179 µM. It also gave an IC50 [25] of 0.055 µM, an IC50 [26] of 0.338 µM and an IC50 [27] of 0.127 µM. The IC50 [28] was 0.232 µM, the IC50 [29] was 0.013 µM and the GI50 [30] was 0.87 µM. It also gave an IC50 [31] of 0.957 µM and a CL/F [32] of 0.383 mL/min/kg.
